Reference: ChEMBL document CHEMBL1122225, “Synthesis and platelet aggregation inhibiting activity of prostaglandin D analogues” (J Med Chem, 1983)
In brackets after ≈: the same amount, converted by molar mass.

Legend:
[1] = Potency in gerbil colon stimulation assay compared to PGE1.; format: functional
[2] = Relative potency with respect to PGE1 = 100 in rat blood pressure assay; format: functional
Homo sapiens = species: Homo sapiens; experiment: In vitro inhibition of ADP-induced platelet aggregation in human platelet rich plasma.; format: functional
[3] = Relative potency with respect to PGF2-alpha = 100 in rat blood pressure assay

SMILES	Relative potency [1]	Relative potency [2]	IC50 (Homo sapiens) [µg/mL]	Relative potency [3]
CCCCC[C@H](O)C/C=C1/C(=O)C[C@H](O)[C@@H]1C/C=C\CCCC(=O)O	1	10	0.1 (≈ 0.284 µM)	–
CCCCC/C=C/C=C1/C(=O)C[C@H](O)[C@@H]1C/C=C\CCCC(=O)O	<0.1	0.1	0.32 (≈ 0.957 µM)	–
CCCCC[C@H](O)/C=C/C1C(=O)C[C@H](O)[C@@H]1CCOCCCC(=O)O (stereo partly drawn)	0.3	–	0.032 (≈ 0.0898 µM)	–
CCCCC[C@H](O)/C=C/C1C(=O)CC(O)[C@@H]1C/C=C\CCCC(=O)O (stereo partly drawn)	0.3	10	0.0001 (≈ 0.000284 µM)	–
CCCCC[C@H](O)/C=C/C1C(=O)CC[C@@H]1C/C=C\CCCC(=O)O (stereo partly drawn)	1	10	0.001 (≈ 0.00297 µM)	–
CCCCC[C@H](O)/C=C/C1C(=O)CC2OC(=O)CCC/C=C\C[C@@H]21 (stereo partly drawn)	0.3	1	0.032 (≈ 0.0957 µM)	–
CC/C=C\C[C@H](O)/C=C/C1C(=O)C[C@H](O)[C@@H]1C/C=C\CCCC(=O)O (stereo partly drawn)	1	10	0.0032 (≈ 0.00913 µM)	–
CCCCC[C@H](O)/C=C/C1C(=O)C[C@H](O)[C@@H]1CCCCCCC(=O)O (stereo partly drawn)	3	0.1	0.32 (≈ 0.903 µM)	–
CCCCC[C@H](O)/C=C/C1C(=O)C[C@H](O)[C@@H]1C/C=C\CCCCCC(=O)O (stereo partly drawn)	<0.1	–	1 (≈ 2.63 µM)	–
O=C(O)CCC/C=C\C[C@@H]1C(/C=C/[C@@H](O)CCc2ccccc2)C(=O)C[C@@H]1O (stereo partly drawn)	10	–	3.2 (≈ 8.28 µM)	32
CCCCC[C@@H]1/C=C\C2C(=O)CC(O)[C@@H]2C/C=C\CCCC(=O)O1 (stereo partly drawn)	0.1	0.1	1 (≈ 2.99 µM)	–
CCCCC[C@H](O)CCC1C(=O)C[C@H](O)[C@@H]1CCCCCCC(=O)O (stereo partly drawn)	0.1	–	3.2 (≈ 8.98 µM)	0.3
CCCCC[C@](C)(O)/C=C/C1C(=O)C=C[C@@H]1C/C=C\CCCC(=O)O (stereo partly drawn)	0.3	0.1	1 (≈ 2.87 µM)	–
CCCCC[C@H](O)/C=C/C1C(=O)C=C[C@@H]1C/C=C\CCCC(=O)O (stereo partly drawn)	0.1	10	0.0032 (≈ 0.00957 µM)	–
CCCCC[C@](C)(O)/C=C/C1C(=O)C[C@H](O)[C@@H]1C/C=C\CCCC(=O)O (stereo partly drawn)	10	–	0.32 (≈ 0.873 µM)	32
CCCCC(C)(C)[C@H](O)/C=C/C1C(=O)C[C@H](O)[C@@H]1C/C=C\CCCC(=O)O (stereo partly drawn)	3	–	–	32
CCCCC[C@H](O)/C=C/[C@H]1C(=O)C[C@H](O)[C@@H]1C/C=C/CCCC(=O)O [[3H]PGD2]	3	10	0.0032 (≈ 0.00908 µM)	–
